In brackets after ≈: the same amount, converted by molar mass. Where two headings read alike, the source gives them in different places.
Assays:
Assay in all cases: CLSI broth dilution MIC determination
Assay type in all cases: cell-based
[1] = test system: A. baumannii imipenem-resistant; conditions: Gram-negative
[2] = test system: H. influenzae Erythro >4, Azithro 1; conditions: H. influenzae Erythro >4, Azithro 1; Gram-negative
Description: MIC data was collected for the novel macrolides that this platform has produced against over 21 unique strains of B. subtilis, E. coli, S. aureus, S. pneumoniae, and H. influenzae, including several multidrug-resistant strains, with a special focus on macrolide resistant mechanisms (vide supra). […] CLSI standard procedures for broth dilution MIC determination were used. […] These genotypes can be constitutive or inducible.

[3] = test system: P. aeruginosa HPA101-1477; conditions: Gram-negative
K. pneumoniae SHV-12 = conditions: Gram-negative
[4] = test system: E. faecalis Vancomycin-resistant; conditions: E. faecalis Vancomycin-resistant; Gram-positive
A. baumannii ATCC 19606 = test system: A. baumannii ATCC 19606
[5] = test system: A. baumannii chromosomal class C; conditions: Gram-negative
P. aeruginosa ATCC 27853 = test system: P. aeruginosa ATCC 27853
K. pneumoniae ATCC 10031 = test system: K. pneumoniae ATCC 10031
[6] = test system: S. pyogenes Macrolide-resistant; conditions: S. pyogenes Macrolide-resistant; Gram-positive
S. pyogenes ATCC 19615 = conditions: S. pyogenes ATCC 19615; Gram-positive
A. baumannii IMP-4 = conditions: Gram-negative
E. faecalis ATCC 29212 = conditions: E. faecalis ATCC 29212; Gram-positive
K. pneumoniae KPC-2 = conditions: Gram-negative
E. coli ATCC 25922 = test system: E. coli ATCC 25922
In short: (§1)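 Compounds are serially diluted in broth per CLSI standard methods to give the MIC; azithromycin and solithromycin act as comparator macrolides in many cases, and resistance genotypes may be inducible or constitutive.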

[7] = test system: S. pneumoniae mef A genotype (second strain so labelled); conditions: Gram-positive
In short: as §1

S. pneumoniae ATCC 49619 = conditions: S. pneumoniae ATCC 49619; Gram-positive
In short: as §1

S. aureus ATCC 29213 = test system: S. aureus ATCC 29213
In short: as §1

E. coli CTX-M-14 = conditions: Gram-negative
In short: as §1

S. aureus MRSA: USA300 = test system: S. aureus MRSA: USA300
In short: as §1

S. aureus MRSA: USA100 = conditions: S. aureus MRSA: USA100; Gram-positive
In short: as §1

E. coli TEM-1 = conditions: E. coli TEM-1; Gram-negative
In short: as §1

[8] = test system: S. pneumoniae erm B + mef A genotype; conditions: S. pneumoniae erm B + mef A genotype; Gram-positive
In short: as §1

S. aureus erm A genotype = conditions: S. aureus erm A genotype; Gram-positive
In short: as §1

H. influenzae ATCC49247 = conditions: Gram-negative
In short: as §1

K. pneumoniae TEM-10 = conditions: Gram-negative
E. coli NDM-1 = conditions: Gram-negative
In short: as §1

S. aureus USA600, GISA = conditions: S. aureus USA600, GISA; Gram-positive
In short: as §1

[9] = test system: K. pneumoniae MP-548 clinical; conditions: Klebsiella pneumoniae, MP548CLINICAL, read-out: MIC
[10] = test system: A. baumannii MP-577 Clinical-AZT low; conditions: Acinetobacter baumannii, read-out: MIC
P. aeruginosa MP-7 PAO1 = conditions: Pseudomonas aeruginosa, read-out: MIC
[11] = test system: K. pneumoniae MP-546 Clinical-MDR; conditions: Klebsiella pneumoniae, read-out: MIC
[12] = test system: P. aeruginosa MP-8 PAO1:mex (mex-oprM-deletion); conditions: Pseudomonas aeruginosa, PAO1
[13] = test system: A. baumannii MP-576 Clinical-MDR; conditions: Acinetobacter baumannii, read-out: MIC
[14] = test system: E. coli MP-9 ATCC25922:tolC; conditions: Escherichia coli, ATCC25922
In short: as §1

[15] = test system: E. coli MP-532 clinical-cErmB; conditions: Escherichia coli
In short: as §1

[16] = test system: S. aureus MP-17 ATCCBAA-977 (BAA 977 iErm); conditions: Staphylococcus aureus; S. aureus MP-17, ATCCBAA-977, iErm; read-out: MIC
In short: as §1

[17] = test system: S. aureus (MRSA) MP-513 ST-228 cErm (Clinical-cErm); conditions: Staphylococcus aureus, read-out: MIC
In short: as §1

E. coli MP-541 clinical = conditions: Escherichia coli, MP541CLINICAL, read-out: MIC
In short: as §1

[18] = A. baumannii ATCC 19606, Gram-negative
[19] = P. aeruginosa ATCC 27853, Gram-negative
[20] = K. pneumoniae ATCC 10031, Gram-negative
[21] = E. coli ATCC 25922, Gram-negative
[22] = S. aureus ATCC 29213, Gram-positive
[23] = S. aureus MRSA: USA300, Gram-positive

Row | Structure (SMILES) | MIC [1] [µg/mL] | MIC [2] [µg/mL] | MIC [3] [µg/mL] | MIC (K. pneumoniae SHV-12) [µg/mL] | MIC [4] [µg/mL] | MIC (A. baumannii ATCC 19606; [18]) [µg/mL] | MIC [5] [µg/mL] | MIC (P. aeruginosa ATCC 27853; [19]) [µg/mL] | MIC (K. pneumoniae ATCC 10031; [20]) [µg/mL] | MIC [6] [µg/mL] | MIC (S. pyogenes ATCC 19615) [µg/mL] | MIC (A. baumannii IMP-4) [µg/mL] | MIC (E. faecalis ATCC 29212) [µg/mL] | MIC (K. pneumoniae KPC-2) [µg/mL] | MIC (E. coli ATCC 25922; [21]) [µg/mL] | MIC [7] [µg/mL] | MIC (S. pneumoniae ATCC 49619) [µg/mL] | MIC (S. aureus ATCC 29213; [22]) [µg/mL] | MIC (E. coli CTX-M-14) [µg/mL] | MIC (S. aureus MRSA: USA300; [23]) [µg/mL] | also measured
1 | CC[C@H]1OC(=O)[C@@](C)(F)C(=O)[C@H](C)[C@@H](O[C@@H]2OC(C)CC(N(C)C)C2O)[C@](C)(OC)C[C@@H](C)C(=O)[C@H](C)[C@H]2N(C/C=C/Cn3cc(-c4cnc(N)s4)nn3)C(=O)O[C@]12C (some centres unmarked) [FSM-100240] | 32 (≈ 37.6 µM) | 1 (≈ 1.18 µM) | > 32 | > 32 | 8 (≈ 9.41 µM) | 32 (≈ 37.6 µM) | 16 (≈ 18.8 µM) | > 32 | 4 (≈ 4.71 µM) | 0.25 (≈ 0.294 µM) | ≤ 0.0312 | > 32 | ≤ 0.0312 | > 32 | > 32 | 0.25 (≈ 0.294 µM) | ≤ 0.0312 | ≤ 0.0312 | > 32 | 1 (≈ 1.18 µM) | MIC (S. aureus MRSA: USA100): > 32 µg/mL; MIC (E. coli TEM-1): 32 µg/mL (≈ 37.6 µM); MIC [8]: 0.125 µg/mL; MIC (S. aureus erm A genotype): > 32 µg/mL; MIC (H. influenzae ATCC49247): 1 µg/mL (≈ 1.18 µM); MIC (K. pneumoniae TEM-10): 32 µg/mL (≈ 37.6 µM); MIC (E. coli NDM-1): > 32 µg/mL; MIC (S. aureus USA600, GISA): > 32 µg/mL
2 | CC[C@H]1OC(=O)[C@H](C)C(=O)[C@H](C)[C@@H](O[C@@H]2OC(C)CC(N(C)C)C2O)[C@](C)(OC)C[C@@H](C)C(=O)[C@H](C)[C@H]2N(C/C=C/Cn3cc(-c4nccs4)nn3)C(=O)O[C@]12C (some centres unmarked) [FSM-11559] | 32 (≈ 39.2 µM) | 4 (≈ 4.9 µM) | > 32 | > 32 | > 32 | 16 (≈ 19.6 µM) | 16 (≈ 19.6 µM) | > 32 | 4 (≈ 4.9 µM) | 0.125 (≈ 0.153 µM) | ≤ 0.0312 | > 32 | ≤ 0.0312 | > 32 | > 32 | 0.125 (≈ 0.153 µM) | ≤ 0.0312 | 0.125 (≈ 0.153 µM) | > 32 | 4 (≈ 4.9 µM) | MIC (S. aureus MRSA: USA100): > 32 µg/mL; MIC (E. coli TEM-1): 32 µg/mL (≈ 39.2 µM); MIC [8]: 1 µg/mL; MIC (S. aureus erm A genotype): > 32 µg/mL; MIC (H. influenzae ATCC49247): 4 µg/mL (≈ 4.9 µM); MIC (K. pneumoniae TEM-10): > 32 µg/mL; MIC (E. coli NDM-1): > 32 µg/mL; MIC (S. aureus USA600, GISA): > 32 µg/mL
3 | CC[C@H]1OC(=O)[C@@](C)(F)C(=O)[C@H](C)[C@@H](O[C@@H]2OC(C)CC(N(C)C)C2O)[C@](C)(OC)C[C@@H](C)C(=O)[C@H](C)[C@H]2N(C/C=C\Cn3cc(-c4cccc(N)c4)nn3)C(=O)O[C@]12C (some centres unmarked) [FSM-100431] | 16 (≈ 19 µM) | > 32 | > 32 | > 32 | > 32 | 16 (≈ 19 µM) | 8 (≈ 9.49 µM) | > 32 | 32 (≈ 38 µM) | < 0.0312 | < 0.0312 | > 32 | < 0.0312 | > 32 | > 32 | < 0.0312 | < 0.0312 | 0.125 (≈ 0.148 µM) | > 32 | > 32 | MIC (S. aureus MRSA: USA100): > 32 µg/mL; MIC (E. coli TEM-1): > 32 µg/mL; MIC [8]: 8 µg/mL; MIC (S. aureus erm A genotype): > 32 µg/mL; MIC (H. influenzae ATCC49247): > 32 µg/mL; MIC (K. pneumoniae TEM-10): > 32 µg/mL; MIC (E. coli NDM-1): > 32 µg/mL; MIC (S. aureus USA600, GISA): > 32 µg/mL
4 | CC[C@H]1OC(=O)[C@@](C)(F)C(=O)[C@H](C)[C@@H](O[C@@H]2OC(C)CC(N(C)C)C2O)[C@](C)(OC)C[C@@H](C)C(=O)[C@H](C)[C@H]2N(CC#CCn3cc(-c4cc(=O)cc[nH]4)nn3)C(=O)O[C@]12C (some centres unmarked) [FSM-100597] | – | – | – | – | – | – | – | – | – | – | – | – | – | – | – | – | – | – | – | – | MIC [9]: > 64 µg/mL; MIC [10]: > 64 µg/mL; MIC (P. aeruginosa MP-7 PAO1): > 64 µg/mL; MIC (A. baumannii ATCC 19606; Acinetobacter baumannii, ATCC19606, A. baumannii ATCC 19606 (MP-15), read-out: MIC): 64 µg/mL (≈ 75.9 µM); MIC (P. aeruginosa ATCC 27853; Pseudomonas aeruginosa, ATCC27853, P. aeruginosa ATCC 27853 (MP-3), read-out: MIC): > 64 µg/mL; MIC (K. pneumoniae ATCC 10031; Klebsiella pneumoniae, ATCC10031, K. pneumoniae ATCC 10031 (MP-14), read-out: MIC): 8 µg/mL (≈ 9.49 µM); MIC [11]: > 64 µg/mL; MIC [12]: 16 µg/mL (≈ 19 µM); MIC [13]: > 64 µg/mL; MIC [14]: 4 µg/mL (≈ 4.75 µM); MIC (E. coli ATCC 25922; Escherichia coli, ATCC25922, E. coli ATCC 25922 (MP-4), read-out: MIC): 64 µg/mL (≈ 75.9 µM); MIC (S. aureus ATCC 29213; Staphylococcus aureus, ATCC29213, S. aureus ATCC 29213 (MP-12), read-out: MIC): 1 µg/mL (≈ 1.19 µM); MIC [15]: > 64 µg/mL; MIC [16]: 1 µg/mL (≈ 1.19 µM); MIC (S. aureus MRSA: USA300; Staphylococcus aureus, S. aureus MRSA: USA300 (MP-549, msr(a)), read-out: MIC): 2 µg/mL (≈ 2.37 µM); MIC [17]: > 64 µg/mL; MIC (E. coli MP-541 clinical): 32 µg/mL (≈ 38 µM)

From patent US10633407B2, “14-membered ketolides and methods of their preparation and use” (President and Fellows of Harvard College, priority 2014, dated 2020)
